Data reported in patent publication US20230293495A1, “PHARMACEUTICAL FORMULATIONS FOR TREATING DISEASES MEDIATED BY KDM1A” (Imago Biosciences, Inc., priority 2020, published 2023).

How the values were obtained:
KDM1A = KDM1A (Homo sapiens, UniProt O60341); test: Inhibition of KDM1A; assay type: biochemical
[1] = Excipient compatibility study: binary mixtures of Compound B and excipient in open vials, assay and related substances (RS); assay type: physicochemical; conditions: for RS-1 (related substance): in %; for Total related substances: in % (unit assumed)
Experimental: Commonly used excipients for oral solid dosage formulations were evaluated for this study including fillers, binders, disintegrants, glidants, lubricants and organic acid stabilizers.
Briefly, each excipient and API were individually weighed and filled in vials, followed by the addition of glass beads. The samples were closed, vortexed, and refrigerated at 2 to 8° C. prior to initiation of study as the sample preparation was executed over a period of 10 days. All vials were removed from the refrigerator and allowed to equilibrate to room temperature, then opened, and stored at the designated storage conditions at the same t=0.

Structure (SMILES)	Inhibition of KDM1A, in words (KDM1A)	% LC (assay) ([1]; 1 week, 50° C./11% RH) [% LC]	RS-1 (related substance) ([1]; 1 week, 50° C./11% RH)	Total related substances ([1]; 1 week, 50° C./11% RH)	% LC (assay) ([1]; 1 week, 50° C./75% RH) [% LC]	Related substance RRT 1.081 ([1]; 1 week, 50° C./75% RH) [%]	RS-1 (related substance) ([1]; 1 week, 50° C./75% RH)	Total related substances ([1]; 1 week, 50° C./75% RH)	% LC (assay) ([1]; 2 weeks, 50° C./11% RH) [% LC]	RS-1 (related substance) ([1]; 2 weeks, 50° C./11% RH)	Total related substances ([1]; 2 weeks, 50° C./11% RH)	% LC (assay) ([1]; 2 weeks, 50° C./75% RH) [% LC]	Related substance RRT 1.081 ([1]; 2 weeks, 50° C./75% RH) [%]	RS-1 (related substance) ([1]; 2 weeks, 50° C./75% RH)	Total related substances ([1]; 2 weeks, 50° C./75% RH)	% LC (assay) ([1]; week 0) [% LC]	Related substance RRT 1.081 ([1]; week 0) [%]	RS-1 (related substance) ([1]; week 0)	Total related substances ([1]; week 0)
CN1CCN(C(=O)[C@H](CCCN[C@@H]2C[C@H]2c2ccc(F)cc2)NC(=O)c2ccc(-n3ccnn3)cc2)CC1.Cc1ccc(S(=O)(=O)O)cc1 [Compound B, N—((S)-5-((1R,2S)-2-(4-fluorophenyl)cyclopropylamino)-1-(4-methylpiperazin-1-yl)-1-oxopentan-2-yl)-4-(1H-1,2,3-triazol-1-yl)benzamide ditosylate]	has shown activity for the inhibition of KDM1A	98.824	0.1652	0.2245	102.663	0.0649	0.1453	0.2102	100.211	0.3516	0.4595	101.800	0.0715	0.3545	0.4260	102.973	0.0589	0.0935	0.1525
CN1CCN(C(=O)[C@H](CCCN[C@@H]2C[C@H]2c2ccc(F)cc2)NC(=O)c2ccc(-n3ccnn3)cc2)CC1 [Compound A, N—((S)-5-((1R,2S)-2-(4-fluorophenyl)cyclopropylamino)-1-(4-methylpiperazin-1-yl)-1-oxopentan-2-yl)-4-(1H-1,2,3-triazol-1-yl)benzamide]	has shown activity for the inhibition of KDM1A																		
